According to patent US11208412B2 (DAEGU-GYEONGBUK MEDICAL INNOVATION FOUNDATION, priority 2017, dated 2021):

Assays:
Assay in all cases: Kinase selectivity, DiscoverX scanMAX Kinase assay panel (% control)
Assay type in all cases: binding
[1] = biological target: T1, kinases of the scanMAX Kinase assay panel (Homo sapiens, UniProt Q15835); settings: GRK1; 1 uM
T1 construct: purchased DiscoverX Co. (contract measurement) scanMAX Kinase assay panel
T1 sequence (Q15835 1-563): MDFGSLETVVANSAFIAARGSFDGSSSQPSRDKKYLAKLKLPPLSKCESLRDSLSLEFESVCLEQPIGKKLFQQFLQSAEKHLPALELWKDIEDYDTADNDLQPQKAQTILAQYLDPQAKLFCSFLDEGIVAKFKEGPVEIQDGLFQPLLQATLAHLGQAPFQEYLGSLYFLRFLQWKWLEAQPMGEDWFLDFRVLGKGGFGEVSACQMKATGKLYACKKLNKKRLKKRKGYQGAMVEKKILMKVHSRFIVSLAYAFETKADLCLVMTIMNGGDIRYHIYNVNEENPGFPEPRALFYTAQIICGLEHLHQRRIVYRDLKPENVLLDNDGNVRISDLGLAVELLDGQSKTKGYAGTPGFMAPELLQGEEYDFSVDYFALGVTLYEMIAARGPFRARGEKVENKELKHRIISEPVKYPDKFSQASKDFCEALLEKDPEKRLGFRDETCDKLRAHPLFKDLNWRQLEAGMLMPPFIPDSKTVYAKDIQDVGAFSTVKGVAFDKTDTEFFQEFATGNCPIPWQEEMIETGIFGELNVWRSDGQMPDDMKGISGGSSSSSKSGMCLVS
Experimental: (§1) The following experiment was performed to evaluate the activity of the compounds of the present invention to inhibit many enzymes.
(§2) Particularly, the compounds of Examples 8, 64 and 104 were selected among all of those compounds of the invention. DiscoverX Co. was asked to measure the enzyme (kinase) selectivity, and the experiment was performed using scanMAX™ Kinase assay panel.
(§3) Wherein, the concentration of the drug treated to each enzyme was 1 uM in DMSO and the control percentage (% control) was determined by the following Equation 1. (example compound−positive control)/(negative control−positive control)×100 [Equation 1]
(§4) Herein, the positive control indicates the compound showing the % control of 0%, and the negative control indicates DMSO showing the % control of 100%. The enzyme selectivity in the present invention is defined as follows: When the % control for each enzyme is less than 35% (<35%), it is judged that the compound has the activity to the corresponding enzyme.

[2] = biological target: T2, kinases of the scanMAX Kinase assay panel (Homo sapiens, UniProt Q9UKI8); settings: kinase TLK1; 1 uM in DMSO
T2 construct: purchased DiscoverX Co. (contract measurement) scanMAX Kinase assay panel
T2 sequence (Q9UKI8 1-766): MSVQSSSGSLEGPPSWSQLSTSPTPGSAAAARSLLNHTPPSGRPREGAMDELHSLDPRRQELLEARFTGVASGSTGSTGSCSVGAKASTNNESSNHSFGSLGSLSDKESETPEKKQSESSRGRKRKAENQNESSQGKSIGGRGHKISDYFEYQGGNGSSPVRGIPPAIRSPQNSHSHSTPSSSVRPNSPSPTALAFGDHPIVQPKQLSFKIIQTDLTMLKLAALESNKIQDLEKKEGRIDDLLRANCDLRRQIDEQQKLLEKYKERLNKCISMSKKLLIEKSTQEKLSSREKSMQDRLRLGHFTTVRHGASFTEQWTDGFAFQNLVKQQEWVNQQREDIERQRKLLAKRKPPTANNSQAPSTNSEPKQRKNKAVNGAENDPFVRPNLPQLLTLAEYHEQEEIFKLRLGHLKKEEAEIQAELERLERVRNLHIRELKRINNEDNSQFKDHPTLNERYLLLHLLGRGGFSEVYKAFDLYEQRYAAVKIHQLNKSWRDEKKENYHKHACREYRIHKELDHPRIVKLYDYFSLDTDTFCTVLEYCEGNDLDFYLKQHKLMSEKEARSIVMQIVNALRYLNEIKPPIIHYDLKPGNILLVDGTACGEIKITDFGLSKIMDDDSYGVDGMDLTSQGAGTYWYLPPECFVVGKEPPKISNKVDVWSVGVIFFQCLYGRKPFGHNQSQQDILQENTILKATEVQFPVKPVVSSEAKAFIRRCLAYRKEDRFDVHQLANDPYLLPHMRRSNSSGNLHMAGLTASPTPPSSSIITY
Experimental: as §1, §2, §3, §4

[3] = biological target: T3, kinases of the scanMAX Kinase assay panel (Homo sapiens, UniProt Q9NRM7); settings: LATS2; 1 uM
T3 construct: purchased DiscoverX Co. (contract measurement) scanMAX Kinase assay panel
T3 sequence (Q9NRM7 1-1088): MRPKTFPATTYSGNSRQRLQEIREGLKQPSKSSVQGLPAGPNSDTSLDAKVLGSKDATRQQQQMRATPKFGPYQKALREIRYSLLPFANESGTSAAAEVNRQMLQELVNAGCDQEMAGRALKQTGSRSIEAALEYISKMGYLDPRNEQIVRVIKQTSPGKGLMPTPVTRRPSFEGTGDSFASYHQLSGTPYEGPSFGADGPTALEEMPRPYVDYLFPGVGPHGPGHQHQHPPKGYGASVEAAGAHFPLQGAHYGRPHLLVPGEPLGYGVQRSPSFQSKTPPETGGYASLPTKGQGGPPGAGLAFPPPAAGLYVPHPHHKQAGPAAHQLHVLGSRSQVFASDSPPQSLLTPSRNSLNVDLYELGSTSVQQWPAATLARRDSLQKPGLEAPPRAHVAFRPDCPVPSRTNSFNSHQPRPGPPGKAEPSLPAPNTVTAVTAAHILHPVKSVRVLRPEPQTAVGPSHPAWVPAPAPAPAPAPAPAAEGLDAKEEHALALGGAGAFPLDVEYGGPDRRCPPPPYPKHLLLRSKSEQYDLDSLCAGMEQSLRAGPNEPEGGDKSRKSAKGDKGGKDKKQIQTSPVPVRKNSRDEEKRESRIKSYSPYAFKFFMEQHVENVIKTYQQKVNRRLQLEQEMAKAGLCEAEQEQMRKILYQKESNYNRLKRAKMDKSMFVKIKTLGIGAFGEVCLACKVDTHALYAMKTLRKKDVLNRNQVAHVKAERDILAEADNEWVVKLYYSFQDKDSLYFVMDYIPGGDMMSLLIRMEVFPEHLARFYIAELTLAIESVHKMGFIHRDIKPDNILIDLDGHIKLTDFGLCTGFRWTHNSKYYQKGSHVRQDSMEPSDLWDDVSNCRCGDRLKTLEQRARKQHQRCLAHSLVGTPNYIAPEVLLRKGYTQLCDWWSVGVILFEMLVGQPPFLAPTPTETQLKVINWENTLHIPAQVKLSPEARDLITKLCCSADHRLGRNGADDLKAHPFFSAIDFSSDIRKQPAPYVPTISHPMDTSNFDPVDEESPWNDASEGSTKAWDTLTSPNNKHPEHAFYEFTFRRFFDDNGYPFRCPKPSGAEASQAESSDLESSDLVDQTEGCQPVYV
Experimental: as §1, §2, §3, §4

Compound: CNc1nc(Nc2ccc(C(=O)N3CCOCC3)cc2OC)nc2[nH]cc(C#N)c12 [Example 1, 2-((2-methoxy-4-(morpholine-4-carbonyl)phenyl)amino)-4-(methylamino)-7H-pyrrolo[2,3-d]pyrimidine-5-carbonitrile]
- remaining binding at 1 µM [1]: 72%
- remaining binding at 1 µM [2]: 95%
- remaining binding at 1 µM [3]: 61%

Compound: CC1(Nc2nc(Nc3cnn([C@H]4CCN(C5COC5)C[C@@H]4F)c3Cl)nc3[nH]cc(C#N)c23)CC1 [Example 52, 2-((5-chloro-1-((3S,4S)-3-fluoro-1-(oxetane-3-yl)piperidine-4-yl)-1H-pyrazole-4-yl)amino)((1-methylcyclopropyl)amino)-7H-pyrrolo[2,3-d]pyrimidine-5-carbonitrile]
- remaining binding at 1 µM [1]: 36%
- remaining binding at 1 µM [2]: 78%
- remaining binding at 1 µM [3]: 11%

Compound: CCNc1nc(Nc2ccc(C(=O)N3CCC(N4CCOCC4)CC3)cc2OC)nc2[nH]cc(C(F)(F)F)c12 [Example 104, (4-((4-(ethylamino)-5-(trifluoromethyl)-7H-pyrrolo[2,3-d]pyrimidine-2-yl)amino)-3-methoxyphenyl)(4-morpholinopiperidine-1-yl)methanone]
- remaining binding at 1 µM [1]: 67%
- remaining binding at 1 µM [2]: 72%
- remaining binding at 1 µM [3]: 87%
